US20090269330A1, “FATTY ACID TRIGLYCERIDES FOR MAKING BIOCOMPATIBLE COATINGS” (ZISCOAT NV, priority 2006, published 2009)

Assay: In vitro drug release from enzymatically transesterified triglyceride coating on stainless steel samples
Format: physicochemical
Settings: 5 weight % paclitaxel in enzymatically transesterified triglyceride coating; PBS with 0.02% (w/v) sodium azide, 37° C.; after 5 weeks; HPLC
Protocol: Transesterified triglyceride mixtures were made using the following procedure: • 30 weight % tristearin, 30 weight % triolein, 40 weight % trilinolein are put in a vacuum furnace at 70° C. during 1 hour • the mixture is stirred during 30 minutes at 75° C. • 1% of 1,3 specific lipase (lipozyme) is added to the mixture at 75° C. during 1 hour. • Filtration over Whatman no. 4 filter. The slip melting point of the resulting mixture was 60° C.
5 weight % of paclitaxel (taxol) and acetone were added to this triglyceride mixture, heated to 50° C. and stirred until homogeneous. Stainless steel samples were dipped into the solution followed by air-drying. The samples were put into 5 ml of release medium (PBS with 0.02% (w/v) sodium azide) at 37° C. and continuously shaken with a rocking table. At different time points, samples were put in a new vial with fresh release medium. The medium of the previous vials were analyzed with HPLC to determine the concentration of paclitaxel that was released. After the test, the remaining paclitaxel was liberated from the coating on the stainless steel samples by dissolving the coating in acetone at 50° C.

percentage of drug released from coating: 75%
SMILES: CC(=O)O[C@H]1C(=O)[C@@]2(C)[C@H]([C@H](OC(=O)c3ccccc3)[C@]3(O)C[C@H](OC(=O)[C@H](O)[C@@H](NC(=O)c4ccccc4)c4ccccc4)C(C)=C1C3(C)C)[C@]1(OC(C)=O)CO[C@@H]1C[C@@H]2O [paclitaxel]
